Target: Toll-like receptor 4 (Homo sapiens, UniProt O00206)
Assay: Inhibition of induction of NF-kappaB by LPS in HEK293 cells co-transfected with TLR4, CD14 and MD2

Sequence of Toll-like receptor 4 (O00206 whole entry): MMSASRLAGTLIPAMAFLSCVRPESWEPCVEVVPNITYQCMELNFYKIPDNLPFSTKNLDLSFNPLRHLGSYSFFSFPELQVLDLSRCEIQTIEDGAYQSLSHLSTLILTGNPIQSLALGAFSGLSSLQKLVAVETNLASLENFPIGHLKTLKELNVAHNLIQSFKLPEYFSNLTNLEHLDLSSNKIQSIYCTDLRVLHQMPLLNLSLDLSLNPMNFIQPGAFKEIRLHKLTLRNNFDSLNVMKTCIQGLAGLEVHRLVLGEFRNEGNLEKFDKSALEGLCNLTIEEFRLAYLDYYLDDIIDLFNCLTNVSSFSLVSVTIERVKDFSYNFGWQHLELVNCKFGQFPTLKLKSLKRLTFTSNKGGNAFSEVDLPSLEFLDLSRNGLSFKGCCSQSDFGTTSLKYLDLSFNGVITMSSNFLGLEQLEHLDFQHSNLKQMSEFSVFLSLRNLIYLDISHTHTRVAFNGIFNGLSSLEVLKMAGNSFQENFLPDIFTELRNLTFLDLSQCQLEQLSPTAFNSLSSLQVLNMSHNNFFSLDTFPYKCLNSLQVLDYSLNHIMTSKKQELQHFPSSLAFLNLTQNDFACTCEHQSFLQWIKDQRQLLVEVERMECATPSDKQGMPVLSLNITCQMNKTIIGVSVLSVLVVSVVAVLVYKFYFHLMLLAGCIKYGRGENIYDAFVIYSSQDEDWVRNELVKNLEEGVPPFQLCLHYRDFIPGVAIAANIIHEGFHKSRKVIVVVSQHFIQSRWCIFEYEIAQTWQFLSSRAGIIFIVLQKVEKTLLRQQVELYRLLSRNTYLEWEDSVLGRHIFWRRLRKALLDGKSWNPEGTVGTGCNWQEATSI

IC50	Compound
6.11 µM	CCCCCCOc1c(C=NN=C(N)N)ccc(C=NN=C(N)N)c1OCCCCCC
59.1 µM	NC(N)=NN=Cc1ccc(C=NN=C(N)N)c(O)c1O
61.4 µM	C=CCOc1c(C=NN=C(N)N)ccc(C=NN=C(N)N)c1OCC=C
9.4 µM	CCCCOc1c(C=NN=C(N)N)ccc(C=NN=C(N)N)c1OCCCC
175 µM	COc1c(C=NN=C(N)N)ccc(C=NN=C(N)N)c1OC
27.6 µM	CCCOc1c(C=NN=C(N)N)ccc(C=NN=C(N)N)c1OCCC
4.5 µM	CCCCCCCCOc1c(C=NN=C(N)N)ccc(C=NN=C(N)N)c1OCCCCCCCC
35.6 µM	CCOc1c(C=NN=C(N)N)ccc(C=NN=C(N)N)c1OCC
190 µM	CCCCCCCCCCCCCCOc1c(C=NN=C(N)N)ccc(C=NN=C(N)N)c1OCCCCCCCCCCCCCC
10.5 µM	CCCCCOc1c(C=NN=C(N)N)ccc(C=NN=C(N)N)c1OCCCCC

Compound	IC50
NC(N)=NN=Cc1ccc(C=NN=C(N)N)cc1	164 µM
